Tests used:
P. aeruginosa NCTC 13437 = assay: Fixed-concentration (0.25× MIC bolalipid) synergy broth microdilution; assay type: cell-based, Pseudomonas aeruginosa; details: P. aeruginosa NCTC 13437
P. aeruginosa PAO1 [1] = assay: as above; assay type: cell-based, Pseudomonas aeruginosa; details: P. aeruginosa PAO1
M. tuberculosis Bleupan = assay type: in vivo, Galleria mellonella; details: in vivo
[2] = system: VR Enterococcus faecalis NCTC 12201; assay: Broth microdilution MIC; assay type: cell-based; details: VR Enterococcus faecalis NCTC 12201
[3] = system: EMR Staphylococcus aureus 16 NCTC 13277; assay: Broth microdilution MIC; assay type: cell-based; details: EMR Staphylococcus aureus 16 NCTC 13277
[4] = system: Pseudomonas aeruginosa NCTC 13437; assay: Broth microdilution MIC; assay type: cell-based
[5] = system: VR Enterococcus faecium NCTC 12204; assay: Broth microdilution MIC; assay type: cell-based; details: VR Enterococcus faecium NCTC 12204
[6] = system: Klebsiella pneumoniae NCTC 13368; assay: Broth microdilution MIC; assay type: cell-based
C. parapsilosis = assay: Broth microdilution MIC; assay type: cell-based
[7] = system: Acinetobacter baumannii ATCC 17978; assay: Broth microdilution MIC; assay type: cell-based
[8] = system: Escherichia coli ATCC 25922; assay: Intrahemocoelic G. mellonella infection model; assay type: in vivo, Galleria mellonella; details: single 10-mg/kg dose 1 h after infection
Procedure: The antimicrobial activities of DQC, CM2, and its analogues Quino-bola, Penta-bola, Hepta-bola, and Octa-bola against Escherichia coli ATCC 25922 were tested in Galleria mellonella larvae. All assays were performed on two separate occasions using a group size of 10 larvae; the larvae were kept in separate petri dishes and in a static incubator at 37°C during the period of the experiment. A suspension of E. coli ATCC 25922 was prepared by transferring two colonies of E. coli ATCC 25922 from a fresh agar plate into PBS and adjusting the absorbance to a McFarland 0.5 standard. The number of CFU per milliliter of this suspension was determined and corresponded to 1 × 10^8 CFU/mL. Larvae were injected beneath the tegument with 10 μL of a 1 × 10^7-CFU/mL bacteria suspension, corresponding to 1 × 10^5 CFU per larva. A 50-μL Hamilton syringe with a G27 needle was used for the injection. […] Ten microliters of stock solution was injected into each larva 1 h after infection (10 mg/kg). Levofloxacin (LVX; 50 μg/mL = 2 mg/kg) and PBS were used as positive and negative controls, respectively. A noninfected PBS injection was included to control for the effects of injection. Survival was monitored over a period of 70 to 72 h. Changes in G. mellonella survival were analyzed by the log rank (Mantel-Cox) method and plotted as Kaplan-Meier survival curves using GraphPad Prism version 7.

P. aeruginosa PAO1 [9] = assay: Checkerboard synergy assay; assay type: cell-based, Pseudomonas aeruginosa
C. albicans 3281 = assay: Broth microdilution MIC; assay type: cell-based, Candida albicans; details: C. albicans 3281
[10] = system: Escherichia coli NCTC 12923; assay: Broth microdilution MIC; assay type: cell-based
C. tropicalis 8760 = assay: Broth microdilution MIC; assay type: cell-based; details: C. tropicalis 8760
C. glabrata 8018 = assay: Broth microdilution MIC; assay type: cell-based; details: C. glabrata 8018
[11] = system: VS Enterococcus faecalis NCTC 775; assay: Broth microdilution MIC; assay type: cell-based
C. krusei 3876 = assay: Broth microdilution MIC; assay type: cell-based
HEK293 = assay: In vitro toxicity for cell line; assay type: cell-based, human; details: HEK293; average ± standard error from 3 independent repeats
Description: (§1) TABLE 2 Toxicity of bolaamphiphiles for two cell lines^a | column: Toxicity (EC50 [μg/ml]) of: / 12-bis-THA Cl2; Toxicity (EC50 [μg/ml]) of: / Dequalinium; Toxicity (EC50 [μg/ml]) of: / Quino-bola; Toxicity (EC50 [μg/ml]) of: / Penta-bola; Toxicity (EC50 [μg/ml]) of: / Hepta-bola; Toxicity (EC50 [μg/ml]) of: / Octa-bola; Toxicity (EC50 [μg/ml]) of: / Octa-C10; Toxicity (EC50 [μg/ml]) of: / Octa-C8; Toxicity (EC50 [μg/ml]) of: / Octa-C6

HeLa = assay: In vitro toxicity for cell line; assay type: cell-based, human; details: average ± standard error from 3 independent repeats
Description: as §1

C. albicans 3179 = assay: Broth microdilution MIC; assay type: cell-based, Candida albicans; details: C. albicans 3179
Klebsiella pneumoniae M6 = assay: Broth microdilution MIC; assay type: cell-based
C. parapsilosis 3209 = assay: Broth microdilution MIC; assay type: cell-based
[12] = system: pBR322 plasmid, wheat germ topoisomerase I; assay: DNA unwinding assay; assay type: biochemical
Procedure: A DNA unwinding assay kit (Inspiralis Limited, Norwich, UK) consists of wheat germ topoisomerase I assay buffer (50 mM Tris HCl [pH 7.9], 1 mM EDTA, 1 mM dithiothreitol [DTT], 20% [vol/vol] glycerol, 50 mM NaCl) dilution buffer (50 mM Tris HCl [pH 7.9], 1 mM EDTA, 1 mM DTT, 50% [vol/vol] glycerol, 500 mM NaCl), wheat germ topoisomerase I (5 U/μL), supercoiled plasmid pBR322 (1 μg/μL), and relaxed plasmid pBR322 (1 μg/μL). For the experiments, 2× DNA loading buffer containing 40% (wt/vol) sucrose, 100 mM Tris-HCl (pH 8), 1 mM EDTA, and 0.5 mg/mL bromophenol blue was prepared. The enzyme was diluted 1/5 with dilution buffer before being used in the assay. For the assay, 3 mM stock solutions in methanol of the compounds to be tested were prepared. An appropriate number of 1.5-mL Eppendorf tubes were filled with 25 μL of a mix consisting of assay buffer (15 μL of buffer per sample), supercoiled or relaxed pBR322 (0.5 μg/assay), and ultrapure water. In the first two tubes, 1 μL of methanol was added to test the effect of the solvent on both the plasmid and the enzyme. Subsequently, 1 μL of the test compounds was added to the remaining tubes, and the tubes briefly vortexed and incubated at room temperature for 5 min. After that, 2 μL of dilution buffer was added in the first tube, whereas 2 μL of enzyme diluted solution was added to the remaining tubes. The tubes were gently vortexed and incubated for 30 min at 37°C in a water bath. After this time, the reaction was stopped by adding 20 μL of water and 50 μL of water-saturated butanol to each tube. The tubes were vortexed and centrifuged for 1 min at 14,800 rpm. The lower aqueous layer of each tube was removed and transferred to a new tube containing 30 μL of chloroform-isoamyl alcohol (24/1) and 50 μL of loading buffer. The tubes were briefly vortexed and centrifuged for 1 min. Twenty microliters of the upper layer of each tube was loaded onto a 1% (wt/vol) agarose gel, and the gel was run at 80 V for approximately 4 h in Tris-acetate-EDTA buffer (40 mM Tris acetate and 1 mM EDTA). Subsequently, the gel was stained with ethidium bromide (1 μg/mL) for 15 min, briefly destained (5 to 10 min) in water, and visualized with a Multi-Doc Imaging M-26X UVP transilluminator.

[13] = system: Acinetobacter baumannii AYE; assay: Broth microdilution MIC; assay type: cell-based; details: Acinetobacter baumannii AYE
[14] = system: Pseudomonas aeruginosa PAO1; assay: Broth microdilution MIC; assay type: cell-based
C. auris temp probe = assay: Broth microdilution MIC; assay type: cell-based, Candida auris; details: C. auris temp probe
[15] = system: EMR Staphylococcus aureus 15 NCTC 13616; assay: Broth microdilution MIC; assay type: cell-based; details: EMR Staphylococcus aureus 15 NCTC 13616
[16] = in the presence of 0.25× MIC Octa-C10 (Table S1)
[17] = in the presence of 0.25× MIC Octa-bola (Table S1)

## C[C@H]1c2cccc(O)c2C(=O)C2=C(O)[C@]3(O)C(=O)C(C(N)=O)=C(O)[C@@H](N(C)C)[C@@H]3[C@@H](O)[C@@H]21 [Doxycyline]
P. aeruginosa NCTC 13437; No bola (Table S1)
  MIC of antibiotic: > 256 µg/mL
P. aeruginosa NCTC 13437; [16]
  MIC of antibiotic: > 256 µg/mL
P. aeruginosa NCTC 13437; [17]
  MIC of antibiotic: > 256 µg/mL
P. aeruginosa PAO1 [1]; No bola (Table S1)
  MIC of antibiotic: 32 µg/mL
P. aeruginosa PAO1 [1]; [16]
  MIC of antibiotic: 64 µg/mL
P. aeruginosa PAO1 [1]; [17]
  MIC of antibiotic: 128 µg/mL

## CO[C@H]1/C=C/O[C@@]2(C)Oc3c(C)c(O)c4c(O)c(c(/C=N/N5CCN(C)CC5)c(O)c4c3C2=O)NC(=O)/C(C)=C\C=C\[C@H](C)[C@H](O)[C@@H](C)[C@@H](O)[C@@H](C)[C@H](OC(C)=O)[C@@H]1C [Rifampin]
P. aeruginosa NCTC 13437; No bola (Table S1)
  MIC of antibiotic: 16 µg/mL
P. aeruginosa NCTC 13437; [16]
  MIC of antibiotic: 8 µg/mL
P. aeruginosa NCTC 13437; [17]
  MIC of antibiotic: 16 µg/mL
M. tuberculosis Bleupan
  larvae rescued: All G. mellonella larvae were rescued
P. aeruginosa PAO1 [1]; No bola (Table S1)
  MIC of antibiotic: 16 µg/mL
P. aeruginosa PAO1 [1]; [16]
  MIC of antibiotic: 8 to 16 µg/mL
P. aeruginosa PAO1 [1]; [17]
  MIC of antibiotic: 16 µg/mL

## Nc1c2c([n+](CCCCCCCCCCCC[n+]3c4c(c(N)c5ccccc53)CCCCC4)c3ccccc13)CCCCC2 [Hepta-bola]
[2]
  MIC: 0.5 µg/mL
[3]
  MIC: 0.25 µg/mL
[4]
  MIC: 32 µg/mL
[5]
  MIC: 0.5 µg/mL
[6]
  MIC: 32 µg/mL
C. parapsilosis
  MIC: 2 µg/mL
[7]
  MIC: 16 µg/mL
[8]
  protection (survival over 72 h): significantly protective
P. aeruginosa PAO1 [9]
  MIC alone Bolalipid: 32 µg/mL
C. albicans 3281
  MIC: 0.5 µg/mL
[10]
  MIC: 2 µg/mL
C. tropicalis 8760
  MIC: 0.25 µg/mL
C. glabrata 8018
  MIC: 0.25 µg/mL
[11]
  MIC: 1 µg/mL
C. krusei 3876
  MIC: 0.5 µg/mL
HEK293
  Toxicity (EC50): 3.5 ± 1.2 µg/mL
HeLa
  Toxicity (EC50): 4.5 ± 0.7 µg/mL
C. albicans 3179
  MIC: 0.5 µg/mL
Klebsiella pneumoniae M6
  MIC: 16 µg/mL
C. parapsilosis 3209
  MIC: 1 µg/mL
[12]; relaxed pBR322 plasmid plus topoisomerase I (Fig. 2A)
  DNA intercalation: to a slightly lesser extent, Hepta-bola are intercalators
[12]; supercoiled pBR322 plasmid, bolalipid present (Fig. 2B)
  relaxation of supercoiled plasmid through the action of topoisomerase I: not observed
[13]
  MIC: 16 µg/mL
[14]
  MIC: 32 µg/mL
C. auris temp probe
  MIC: 2 µg/mL
[15]
  MIC: 0.25 µg/mL

## CC(C)(O/N=C(\C(=O)N[C@@H]1C(=O)N2C(C(=O)[O-])=C(C[n+]3ccccc3)CS[C@H]12)c1csc(N)n1)C(=O)O [Ceftazidime]
P. aeruginosa NCTC 13437; No bola (Table S1)
  MIC of antibiotic: > 128 µg/mL
P. aeruginosa NCTC 13437; [16]
  MIC of antibiotic: > 128 µg/mL
P. aeruginosa NCTC 13437; [17]
  MIC of antibiotic: > 128 µg/mL
P. aeruginosa PAO1 [1]; No bola (Table S1)
  MIC of antibiotic: 2 µg/mL
P. aeruginosa PAO1 [1]; [17]
  MIC of antibiotic: 2 µg/mL

## CC1(C)S[C@@H]2[C@H](NC(=O)[C@H](N)c3ccccc3)C(=O)N2[C@H]1C(=O)O [Ampicillin]
P. aeruginosa NCTC 13437; No bola (Table S1)
  MIC of antibiotic: > 512 µg/mL
P. aeruginosa NCTC 13437; [16]
  MIC of antibiotic: > 512 µg/mL
P. aeruginosa NCTC 13437; [17]
  MIC of antibiotic: > 512 µg/mL
P. aeruginosa PAO1 [1]; No bola (Table S1)
  MIC of antibiotic: > 512 µg/mL
P. aeruginosa PAO1 [1]; [17]
  MIC of antibiotic: > 512 µg/mL
